Laboratory results published in ChEMBL document CHEMBL6092221, “Discovery of a Novel Macrocyclic Noncovalent CDK7 Inhibitor for Cancer Therapy” (J Med Chem, 2024).
Values after ≈ are worked out from the molar mass of the structure shown. Blank lines part the entries; values can stand above or below the compound they belong to.

Tests used:
[1] = Plasma protein binding in rat assessed as unbound fraction; assay type: ADME, cell-free
[2] = Cmax in rat at 5 mg/kg, po; assay type: ADME, organism-based; settings: in vivo
[3] = Metabolic stability in rat liver microsomes assessed as intrinsic clearance; assay type: ADME, Microsome; settings: read-out: CLH
[4] = Clearance in dog at 1 mg/kg, iv; assay type: ADME, organism-based, Canis lupus familiaris; settings: in vivo
[5] = Permeability in human Caco-2 cells; assay type: ADME, cell-based; settings: read-out: permeability
[6] = AUC(0 to t) in mouse at 1 mg/kg, iv; assay type: ADME, organism-based; settings: in vivo
OVCAR-3 [7] = test: Antitumor activity against human OVCAR-3 cells xenografted in female Balb/c nude mouse assessed as tumor growth inhibition at 2 mg/kg, po administered once daily and measured on day 22; assay type: functional; settings: OVCAR-3, 528 h, time 22 day, read-out: TGI
[8] = Metabolic stability in mouse liver microsomes assessed as intrinsic clearance; assay type: ADME, Microsome; settings: read-out: CLH
[9] = AUC (0 to t) in human OVCAR-3 cells xenografted in female Balb/c nude mouse plasma at 5 mg/kg, po administered once daily; assay type: ADME, organism-based
[10] = Drug concentration in rat plasma at 5 mg/kg, po measured after 0.5 hrs; assay type: ADME, organism-based
[11] = Half life in mouse at 1 mg/kg, iv; assay type: ADME, organism-based; settings: in vivo, iv, 1 mg/kg
[12] = Metabolic stability in human liver microsomes assessed as intrinsic clearance; assay type: ADME, Microsome; settings: read-out: CLH
[13] = Drug concentration in rat small intestine at 5 mg/kg, po measured after 2 hrs; assay type: ADME, organism-based; settings: read-out: Ct
[14] = Drug concentration in rat plasma at 5 mg/kg, po measured after 8 hrs; assay type: ADME, organism-based
[15] = AUC(0 to t) in human HCC70 cells xenografted in female nu/nu mouse plasma at 1 mg/kg, po administered once daily; assay type: ADME, organism-based
[16] = Cmax in mouse at 5 mg/kg, po; assay type: ADME, organism-based; settings: in vivo
[17] = AUC(0 to t) in mouse at 5 mg/kg, po; assay type: ADME, organism-based; settings: in vivo
HCC70 [18] = test: cells; settings: Homo sapiens, HCC70, 72 h
Description: Antiproliferative activity against human HCC70 cells assessed as inhibition of cell proliferation incubated for 72 hrs by celltiter-glo assay

[19] = AUC (0 to t) in dog at 1 mg/kg, iv; assay type: ADME, organism-based, Canis lupus familiaris; settings: in vivo
[20] = Half life in mouse at 5 mg/kg, po; assay type: ADME, organism-based; settings: in vivo
[21] = Volume of distribution at steady state in dog at 1 mg/kg, iv; assay type: ADME, organism-based, Canis lupus familiaris; settings: in vivo, read-out: Vdss
[22] = Toxicity in female nu/nu mouse xenografted with human HCC70 cells assessed as body weight loss at 1 to 10 mg/kg, po administered once daily and measured for 4 weeks; assay type: organism-based; settings: in vivo, 672 h, dose 1-10 mg/kg
[23] = Half life in dog at 1 mg/kg, iv; assay type: ADME, organism-based, Canis lupus familiaris; settings: in vivo
[24] = AUC(0 to t) in rat at 1 mg/kg, iv; assay type: ADME, organism-based; settings: in vivo
[25] = Drug concentration in rat plasma at 5 mg/kg, po measured after 2 hrs; assay type: ADME, organism-based
[26] = Volume of distribution at steady state in mouse at 1 mg/kg, iv; assay type: ADME, organism-based; settings: in vivo, iv, 1 mg/kg
[27] = Oral bioavailability in mouse at 5 mg/kg; assay type: ADME, organism-based; settings: in vivo
[28] = Half life in dog at 2 mg/kg, po; assay type: ADME, organism-based, Canis lupus familiaris; settings: in vivo
[29] = Oral bioavailability in dog at 2 mg/kg; assay type: ADME, organism-based, Canis lupus familiaris; settings: in vivo
[30] = AUC(0 to t) in dog at 2 mg/kg, po; assay type: ADME, organism-based, Canis lupus familiaris; settings: in vivo
[31] = Cmax in human OVCAR-3 cells xenografted in female Balb/c nude mouse plasma at 5 mg/kg, po administered once daily; assay type: ADME, organism-based
[32] = Solubility of compound at pH 7.4; assay type: physicochemical; settings: buffer
[33] = Cmax in human HCC70 cells xenografted in female nu/nu mouse plasma at 1 mg/kg, po administered once daily; assay type: ADME, organism-based
HCC70 [34] = test: Antitumor activity against human HCC70 cells xenografted in female nu/nu mouse assessed as tumor growth inhibition at 1 mg/kg, po administered once daily and measured for 4 weeks; assay type: functional; settings: HCC70, 672 h, read-out: TGI
[35] = Oral bioavailability in rat at 5 mg/kg; assay type: ADME, organism-based; settings: in vivo
[36] = Plasma protein binding in human assessed as unbound fraction; assay type: ADME, cell-free
[37] = AUC(0 to t) in rat at 5 mg/kg, po; assay type: ADME, organism-based; settings: in vivo
[38] = Drug concentration in rat small intestine at 5 mg/kg, po measured after 0.5 hrs; assay type: ADME, organism-based; settings: read-out: Ct
[39] = Drug concentration in rat small intestine at 5 mg/kg, po measured after 8 hrs; assay type: ADME, organism-based; settings: read-out: Ct
[40] = Half life in rat at 1 mg/kg, iv; assay type: ADME, organism-based; settings: in vivo
[41] = Clearance in rat at 1 mg/kg, iv; assay type: ADME, organism-based; settings: in vivo
[42] = Plasma protein binding in mouse assessed as unbound fraction; assay type: ADME, cell-free
[43] = Cmax in dog at 2 mg/kg, po; assay type: ADME, organism-based, Canis lupus familiaris; settings: in vivo
[44] = Volume of distribution at steady state in rat at 1 mg/kg, iv; assay type: ADME, organism-based; settings: in vivo, read-out: Vdss
hERG = hERG (Homo sapiens, UniProt Q12809); test: Inhibition of hERG at 10 uM relative to control; assay type: toxicity
[45] = AUC(0 to infinity) in female Balb/c nude mouse at 1 mg/kg, iv; assay type: ADME, organism-based; settings: in vivo
[46] = Cmax in female Balb/c nude mouse at 10 mg/kg, po; assay type: ADME, organism-based; settings: in vivo
[47] = Clearance in female Balb/c nude mouse at 1 mg/kg, iv; assay type: ADME, organism-based; settings: in vivo
[48] = Efflux ratio of permeability in human Caco-2 cells; assay type: ADME, cell-based
[49] = biological target: Cyclin-dependent kinase 7/ cyclin H (Homo sapiens, UniProt P50613); test: Binding affinity to CDK7/CyclinH (unknown origin) assessed as dissociation constant by SPR assay; assay type: protein-complex assay
[50] = AUC(0 to infinity) in female Balb/c nude mouse at 10 mg/kg, po; assay type: ADME, organism-based; settings: in vivo
[51] = Half life in female Balb/c nude mouse at 10 mg/kg, po; assay type: ADME, organism-based; settings: in vivo
[52] = Oral bioavailability in female Balb/c nude mouse at 10 mg/kg; assay type: ADME, organism-based; settings: in vivo
[53] = Volume of distribution at steady state in female Balb/c nude mouse at 1 mg/kg, iv; assay type: ADME, organism-based; settings: in vivo, read-out: Vdss
[54] = AUC(0 to t) in female Balb/c nude mouse at 5 mg/kg, po; assay type: ADME, organism-based; settings: in vivo
[55] = Oral bioavailability in female Balb/c nude mouse at 5 mg/kg; assay type: ADME, organism-based; settings: in vivo
[56] = Half life in female Balb/c nude mouse at 5 mg/kg, po; assay type: ADME, organism-based; settings: in vivo
[57] = Cmax in female Balb/c nude mouse at 5 mg/kg, po; assay type: ADME, organism-based; settings: in vivo
OVCAR-3 [58] = test: cells; settings: Homo sapiens, OVCAR-3, 72 h
Description: Antiproliferative activity against human OVCAR-3 cells assessed as inhibition of cell proliferation incubated for 72 hrs by celltiter-glo assay

CDK7/Cyclin H/MNAT1 = CDK7/Cyclin H/MNAT1 (Homo sapiens, UniProt P50613); test: Inhibition of CDK7/CyclinH/MAT1 (unknown origin) in presence of ATP by kinase activity assay; assay type: protein-complex assay
CDK7/Cyclin H/MNAT1, sequence (P51946 whole entry): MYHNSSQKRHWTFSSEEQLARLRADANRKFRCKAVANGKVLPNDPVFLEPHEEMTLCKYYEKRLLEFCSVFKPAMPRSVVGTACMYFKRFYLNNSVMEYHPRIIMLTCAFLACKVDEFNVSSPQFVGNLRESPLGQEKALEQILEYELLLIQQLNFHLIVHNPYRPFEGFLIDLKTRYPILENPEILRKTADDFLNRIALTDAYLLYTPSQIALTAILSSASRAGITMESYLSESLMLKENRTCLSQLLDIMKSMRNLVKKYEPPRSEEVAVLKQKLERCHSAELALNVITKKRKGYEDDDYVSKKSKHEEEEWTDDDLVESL
CDK7/Cyclin H/MNAT1, sequence (P50613 whole entry): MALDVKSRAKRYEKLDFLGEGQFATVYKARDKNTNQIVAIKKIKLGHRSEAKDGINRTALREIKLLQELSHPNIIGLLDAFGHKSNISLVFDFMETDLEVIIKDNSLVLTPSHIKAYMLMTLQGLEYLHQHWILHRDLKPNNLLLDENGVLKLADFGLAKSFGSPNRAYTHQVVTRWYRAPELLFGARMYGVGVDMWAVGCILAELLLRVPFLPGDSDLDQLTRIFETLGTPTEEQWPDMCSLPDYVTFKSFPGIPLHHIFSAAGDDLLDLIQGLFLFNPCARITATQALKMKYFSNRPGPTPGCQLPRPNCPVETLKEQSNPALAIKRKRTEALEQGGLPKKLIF
CDK7/Cyclin H/MNAT1, sequence (P51948 whole entry, further chain): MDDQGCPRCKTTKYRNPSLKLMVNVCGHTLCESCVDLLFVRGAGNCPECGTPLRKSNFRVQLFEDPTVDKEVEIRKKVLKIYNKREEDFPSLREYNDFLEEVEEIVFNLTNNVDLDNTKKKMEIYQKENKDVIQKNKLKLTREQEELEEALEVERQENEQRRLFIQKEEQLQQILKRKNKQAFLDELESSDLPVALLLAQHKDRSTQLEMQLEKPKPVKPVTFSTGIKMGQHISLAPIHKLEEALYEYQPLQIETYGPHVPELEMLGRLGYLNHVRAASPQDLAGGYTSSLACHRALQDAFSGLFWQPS

Cyclin-dependent kinase 7/ cyclin H, sequence (P51946 whole entry): as the sequence (P51946 whole entry) above
Cyclin-dependent kinase 7/ cyclin H, sequence (P50613 whole entry): as the sequence (P50613 whole entry) above
hERG, sequence (Q12809 whole entry): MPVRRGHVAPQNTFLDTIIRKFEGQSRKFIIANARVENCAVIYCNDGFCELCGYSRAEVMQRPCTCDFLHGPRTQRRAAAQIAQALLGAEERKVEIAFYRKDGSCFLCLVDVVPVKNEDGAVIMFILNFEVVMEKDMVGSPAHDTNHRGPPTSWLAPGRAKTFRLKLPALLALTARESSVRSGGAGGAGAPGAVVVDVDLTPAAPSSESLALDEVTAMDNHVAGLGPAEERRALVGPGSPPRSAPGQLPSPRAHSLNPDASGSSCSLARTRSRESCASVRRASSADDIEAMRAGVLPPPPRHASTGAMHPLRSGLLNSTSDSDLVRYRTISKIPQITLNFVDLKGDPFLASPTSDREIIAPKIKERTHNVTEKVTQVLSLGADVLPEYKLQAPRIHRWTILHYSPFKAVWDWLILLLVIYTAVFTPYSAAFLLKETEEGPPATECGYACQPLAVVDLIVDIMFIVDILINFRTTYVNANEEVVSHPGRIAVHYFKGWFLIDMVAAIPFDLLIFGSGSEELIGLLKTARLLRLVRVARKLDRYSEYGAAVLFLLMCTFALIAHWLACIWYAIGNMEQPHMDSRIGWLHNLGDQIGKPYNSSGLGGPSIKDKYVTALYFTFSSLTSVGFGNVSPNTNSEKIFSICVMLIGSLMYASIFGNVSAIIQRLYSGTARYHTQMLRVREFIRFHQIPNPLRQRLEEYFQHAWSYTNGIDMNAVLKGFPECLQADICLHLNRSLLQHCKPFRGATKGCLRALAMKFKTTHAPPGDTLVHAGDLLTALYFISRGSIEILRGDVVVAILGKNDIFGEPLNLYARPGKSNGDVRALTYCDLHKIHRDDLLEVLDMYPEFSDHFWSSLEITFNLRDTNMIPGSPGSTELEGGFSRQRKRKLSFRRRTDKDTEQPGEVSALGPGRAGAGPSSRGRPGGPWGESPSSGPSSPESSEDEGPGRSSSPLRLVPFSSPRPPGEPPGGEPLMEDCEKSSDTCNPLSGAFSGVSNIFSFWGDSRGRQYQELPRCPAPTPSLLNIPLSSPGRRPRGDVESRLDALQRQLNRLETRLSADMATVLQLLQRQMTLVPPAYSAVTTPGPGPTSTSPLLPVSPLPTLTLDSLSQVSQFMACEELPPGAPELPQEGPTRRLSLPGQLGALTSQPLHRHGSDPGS

fraction unbound [1]: 0.163
Cmax [2]: 76 ng/mL
CLint scaled [3]: 4.3 mL/min/kg
clearance [4]: 14.5 mL/min/kg
Papp [5]: 2.54 ×10⁻⁶ cm/s
AUC(0-t) [6]: 406 ng·h/mL
CLint scaled [8]: < 26.7 mL/min/kg
AUC(0-t) [9]: 387 ng·h/mL
concentration at 0.5 h [10]: 13.4 ng/mL
t1/2 [11]: 0.6 h
CLint scaled [12]: 7.2 mL/min/kg
concentration at 2 h [13]: 5030 ng/g
concentration at 8 h [14]: 43.1 ng/mL
Cmax [16]: 339 ng/mL
AUC(0-t) [17]: 1920 ng·h/mL
AUC(0-t) [19]: 1110 ng·h/mL
half-life [20]: 2.7 h
Vd [21]: 7.6 L/kg
half-life [23]: 6.9 h
AUC(0-t) [24]: 247 ng·h/mL
concentration at 2 h [25]: 69.3 ng/mL
Vdss [26]: 5.9 L/kg
bioavailability [27]: 94.3%
half-life [28]: 6.6 h
bioavailability [29]: 65.8%
AUC(0-t) [30]: 1460 ng·h/mL
Cmax [31]: 80 ng/mL
solubility [32]: 172 µg/mL (≈ 351 µM)
bioavailability [35]: 89.7%
fraction unbound [36]: 0.142
AUC(0-t) [37]: 920 ng·h/mL
concentration at 0.5 h [38]: 2500 ng/g
concentration at 8 h [39]: 842 ng/g
half-life [40]: 3.2 h
clearance [41]: 67.5 mL/min/kg
fraction unbound [42]: 0.065
Cmax [43]: 123 ng/mL
Vd [44]: 16.9 L/kg
Compound: CC1(C)CC[C@H](Nc2ncc(C(F)(F)F)c(-c3c[nH]c4c(P(C)(C)=O)c(C#N)ccc34)n2)CN1 [SY-5609]
inhibition in vivo at 2 mg/kg (OVCAR-3 [7]): 110%
AUC(0-t) [15]: 138 ng·h/mL
IC50 (HCC70 [18]): 72 nM
Activity [22]: Non-toxic
Cmax [33]: 33.5 ng/mL
inhibition in vivo at 1 mg/kg (HCC70 [34]): 48.8%
inhibition at 10 µM (hERG): 37.1%

Compound: CP(C)(=O)c1c2ccc3c(c[nH]c13)-c1nc(ncc1C(F)(F)F)N[C@H]1CC[C@@H](C1)NCCCCCCNC2=O
IC50 (HCC70 [18]): 422 nM

AUC(0-inf) [45]: 163 ng·h/mL
Papp [5]: < 0.48 ×10⁻⁶ cm/s
CLint scaled [8]: < 13.4 mL/min/kg
Cmax [46]: 89.4 ng/mL
clearance [47]: 95.9 mL/min/kg
efflux ratio [48]: > 35.8
Kd [49]: 0.06 nM
AUC(0-inf) [50]: 412 ng·h/mL
half-life [51]: 2 h
bioavailability [52]: 22.8%
Vd [53]: 12 L/kg
Compound: CP(C)(=O)c1c2ccc3c(c[nH]c13)-c1nc(ncc1C(F)(F)F)N[C@H]1CC[C@@H](C1)NCCOCCNC2=O
IC50 (HCC70 [18]): 29 nM

AUC(0-t) [54]: 572 ng·h/mL
Papp [5]: 0.39 ×10⁻⁶ cm/s
clearance [47]: 41.3 mL/min/kg
bioavailability [55]: 28.4%
half-life [56]: 1.5 h
efflux ratio [48]: 32.5
Cmax [57]: 268 ng/mL
IC50 (OVCAR-3 [58]): 241 nM
Vd [53]: 1.5 L/kg
Compound: CN1CCOCCN(C)[C@H]2CC[C@@H](C2)Nc2ncc(C(F)(F)F)c(n2)-c2c[nH]c3c(P(C)(C)=O)c(ccc23)C1=O
IC50 (HCC70 [18]): 56.1 nM

Papp [5]: 0.9 ×10⁻⁶ cm/s
efflux ratio [48]: 22.3
IC50 (OVCAR-3 [58]): 62.6 nM
Compound: CN1C[C@H](F)CCN(C)[C@H]2CC[C@@H](C2)Nc2ncc(C(F)(F)F)c(n2)-c2c[nH]c3c(P(C)(C)=O)c(ccc23)C1=O
IC50 (HCC70 [18]): 44 nM

IC50 (CDK7/Cyclin H/MNAT1): 4.6 nM
Kd [49]: 0.14 nM
Compound: O=C1NCCCCN[C@@H]2CC[C@H](C2)Nc2ncc(C(F)(F)F)c(n2)-c2c[nH]c3cc1ccc23
IC50 (HCC70 [18]): 207 nM
